Source: patent US20240246935A1 (Plexium, Inc., priority 2021, published 2024)
pEC50: −log10 of the molar value.

test system: IKZF2 (Helios); experiment: IKZF2 reporter degradation assay (HEK 293T IKZF2-mNeonGreen reporter cell line); assay type: cell-based, human; conditions: 1 μM compound, 24 hour incubation, HEK 293T IKZF2-mNeonGreen reporter
Text: Polycistronic plasmids were constructed for the mammalian expression of fluorescent reporter fusions of human transcription factors IKZF1 (Ikaros), IKZF2 (Helios), and IKZF3 (Aiolos). The respective protein sequences had their C-terminal end joined to a GGGGS linker repeated three times followed by mNeonGreen, P2A sequence, and mScarlet. The DNA sequences of the open reading frames are as follows:
IKZF1, IKZF2, and IKZF3 constructs were cloned into the UCOE Hygromycin expression vectors (Millipore Sigma). Reporter constructs were transfected using cationic lipid reagents into adherent HEK 293T cells and stable integrants were selected by treatment with 200 μg/mL hygromycin B. Clonal populations were obtained from the population of stable integrants either by limiting dilution or fluorescence activated cell sorting.
The clonal stable cell lines were maintained under constant 200 μg/mL hygromycin B selection while being passaged for use in the degradation assays. […] The fluorescence intensity of the IKZF1/2/3-mNeonGreen (FITC channel) and mScarlet (PE channel) reporters were routinely analyzed by flow cytometry to confirm consistent expression levels between experiments.
The IKZF1/IKZF2/IKZF3 degradation assays were carried out by harvesting the HEK 293T reporter cell lines and resuspending the cells in media formulated for reduced background fluorescence (FluoroBrite; Thermo Fisher). The respective cell lines were seeded at a density of 4000 cells/well into black-walled 384-well optical grade assay tissue culture plates. The cells were incubated overnight at 37° C. to allow for attachment to the assay plate. Dilutions of the compounds were prepared in DMSO from 10 mM compound stocks. The assay plates were treated with appropriate concentrations of the compounds by dispensing the DMSO dilutions in quadruplicate wells with an upper limit of 0.5% final DMSO.
After 24 hour incubation with the compounds, the assay plates were imaged on an ImageXpress Pico microscopy system (cells maintained at 37° C. during imaging) to obtain the fluorescent readouts. The assay plates were imaged in the FITC and Tetramethylrhodamine (TRITC) channels to obtain the mNeonGreen fluorescence intensity (reporter degradation data) and mScarlet fluorescence intensity (for cell segmentation). 293T-IKZF1 and 293T-IKZF3 reporter cell lines were imaged with exposures of 500 milliseconds (ms) for both FITC and TRITC channels, while the 293T-IKZF2 reporter cell line was imaged with exposures of 1000 ms for FITC and 1250 ms for TRITC. The resulting data was analyzed with Cell Reporter Xpress software using the 2-channel cell scoring analysis with a “percent positive” readout. The TRITC channel was selected for the “nuclei” segmentation with a threshold of 20 while the FITC channel was selected for the “Marker 1” segmentation and a threshold of 100 for the IKZF1 and IKZF3 reporter lines. […] The minimum segmentation width was set to 6 micrometers and the maximum segmentation width was set to 15 micrometers for all cell lines. The DCs calculations were determined by regression to best fit four-parameter logistic curves using GraphPad Prism.

Compound	IKZF2 % Degradation @ 1 μM [%]
O=C1CCC(N2Cc3cc(O[C@H]4CCC[C@@H]4N4CC(c5ccc(F)cc5Cl)C4)ccc3C2=O)C(=O)N1 (stereo partly drawn) [Compound 104, 3-(5-(((1S,2S)-2-(3-(2-chloro-4-fluorophenyl)azetidin-1-yl)cyclopentyl)oxy)-1-oxoisoindolin-2-yl)piperidine-2,6-dione]	71.2
O=C1CCC(N2Cc3cc(O[C@H]4CCCC[C@@H]4N4CC(c5ccc(F)cc5Cl)C4)ccc3C2=O)C(=O)N1 (stereo partly drawn) [Compound 103, 3-(5-(((1S,2S)-2-(3-(2-chloro-4-fluorophenyl)azetidin-1-yl)cyclohexyl)oxy)-1-oxoisoindolin-2-yl)piperidine-2,6-dione]	73.4
O=C1CCC(N2Cc3cc(O[C@H]4CCC[C@@H]4N4CC(c5cccc(F)c5)C4)ccc3C2=O)C(=O)N1 (stereo partly drawn) [Compound 88, 3-(5-(((1S,2S)-2-(3-(3-fluorophenyl)azetidin-1-yl)cyclopentyl)oxy)-1-oxoisoindolin-2-yl)piperidine-2,6-dione]	71.4

molecular target: human E3 ligase component cereblon (CRBN) (Homo sapiens (Human), UniProt Q96SW2); experiment: Cereblon (CRBN) target engagement, NanoBRET TE Intracellular E3 Ligase Assay in transfected HEK-293T cells; conditions: read-out: CRBN Binding EC50
Description: HEK293T cells were harvested ca. 75% confluent with trypsin and plated (500,000 cells/well) in a 6-well tissue culture plate in 2 mL of Dulbecco's Modified Eagle Medium (DMEM)+10% Fetal Bovine Serum (FBS) and incubated overnight at 37° C.
The NanoLuc-CRBN fusion vector (Nluc-CRBN; Promega) contains the coding region of human E3 ligase component cereblon (CRBN) fused to the C-terminus of the NanoLuc luciferase coding region. A mixture of 10 ng Nluc-CRBN and 990 ng DDB1 Expression Vector (Promega) was added to 125 μL Opti-Minimum Essential Medium (Opti-MEM™; Thermo Fisher) along with 2 μL P3000 reagent (Thermo Fisher) in a 1.5 mL epppendorf tube. This solution was added to Lipofectamine 3000 transfection reagent (5 μL; Thermo Fisher) in Opti-MEM (125 μL), mixed well, and incubated for 15 minutes at room temperature. The transfection mixture was added dropwise to cells and incubated overnight at 37° ° C., 5% CO2. Following transfection, cells were washed once with PBS, and trypsin (250 μL) was added and incubated 30-45 sec to dislodge cells. Complete media (2 mL) was added to resuspend cells to form a single cell suspension. Cells were centrifuged at 320×g for 5 min at room temperature, the supernatant was removed, and the cell pellet resuspended in Opti-MEM (3 mL; wash step repeated×2). After final resuspension in 5 mL Opti-MEM, cells were counted and resuspended at 200,000 cells/mL in Opti-MEM.
Cereblon target engagement was monitored by Bioluminescence Resonance Energy Transfer (BRET) in transfected HEK-293T cells using the NanoBRET TE Intracellular E3 Ligase Assay (Promega). Briefly, 384-well plates (white opaque plates, Corning 3574, low binding surface) were seeded with transfected HEK-293T cells (38 μL/well). 2 μL of 10 μM CRBN tracer (diluted 1:5 in Tracer Dilution Buffer) was added to each well. Plates were centrifuged at 320×g for 1 min at room temperature. Test compounds were added in a 11-point dilution series (typically 10 μM to […]) using a TECAN D300e Digital Dispenser. Plates were shaken for 2 minutes on a microplate shaker to mix compounds. Plates were centrifuged at 320×g for 1 min at room temperature, and subsequently incubated for 2 hours at 37° C.
After incubation, plates were allowed to cool to room temperature for 15 minutes. 20 μL of 3× Complete NanoBRET™ Nano-Glo® Substrate plus Inhibitor Solution (Promega, 1:166 Substrate and 1:500 dilution of Extracellular NanoLuc® Inhibitor diluted in Opti-MEM) were added to each well. Plates were incubated with shaking at room temperature for 3 minutes covered with foil. Plates were read on a CLARIOstar microplate reader (BMG LabTech), measuring at 450 nm (donor emission) and 610 nm (acceptor emission). The IC50 values were determined by regression to best fit four-parameter logistic curves using GraphPad Prism.

Chain of human E3 ligase component cereblon (CRBN) (Q96SW2 whole entry): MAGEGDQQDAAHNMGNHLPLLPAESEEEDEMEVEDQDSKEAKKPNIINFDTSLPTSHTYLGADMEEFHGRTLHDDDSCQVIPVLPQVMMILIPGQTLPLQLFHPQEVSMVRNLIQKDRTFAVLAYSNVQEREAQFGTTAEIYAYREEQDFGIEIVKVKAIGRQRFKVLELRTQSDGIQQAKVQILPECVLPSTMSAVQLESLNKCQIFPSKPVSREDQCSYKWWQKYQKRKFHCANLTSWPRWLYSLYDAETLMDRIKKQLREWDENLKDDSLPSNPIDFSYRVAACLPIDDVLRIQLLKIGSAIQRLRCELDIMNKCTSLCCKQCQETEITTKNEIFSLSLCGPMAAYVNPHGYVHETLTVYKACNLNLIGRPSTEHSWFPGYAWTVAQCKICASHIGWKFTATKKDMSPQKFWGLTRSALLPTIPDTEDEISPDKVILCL
Chain of human E3 ligase component cereblon (CRBN) (Q16531 whole entry partner): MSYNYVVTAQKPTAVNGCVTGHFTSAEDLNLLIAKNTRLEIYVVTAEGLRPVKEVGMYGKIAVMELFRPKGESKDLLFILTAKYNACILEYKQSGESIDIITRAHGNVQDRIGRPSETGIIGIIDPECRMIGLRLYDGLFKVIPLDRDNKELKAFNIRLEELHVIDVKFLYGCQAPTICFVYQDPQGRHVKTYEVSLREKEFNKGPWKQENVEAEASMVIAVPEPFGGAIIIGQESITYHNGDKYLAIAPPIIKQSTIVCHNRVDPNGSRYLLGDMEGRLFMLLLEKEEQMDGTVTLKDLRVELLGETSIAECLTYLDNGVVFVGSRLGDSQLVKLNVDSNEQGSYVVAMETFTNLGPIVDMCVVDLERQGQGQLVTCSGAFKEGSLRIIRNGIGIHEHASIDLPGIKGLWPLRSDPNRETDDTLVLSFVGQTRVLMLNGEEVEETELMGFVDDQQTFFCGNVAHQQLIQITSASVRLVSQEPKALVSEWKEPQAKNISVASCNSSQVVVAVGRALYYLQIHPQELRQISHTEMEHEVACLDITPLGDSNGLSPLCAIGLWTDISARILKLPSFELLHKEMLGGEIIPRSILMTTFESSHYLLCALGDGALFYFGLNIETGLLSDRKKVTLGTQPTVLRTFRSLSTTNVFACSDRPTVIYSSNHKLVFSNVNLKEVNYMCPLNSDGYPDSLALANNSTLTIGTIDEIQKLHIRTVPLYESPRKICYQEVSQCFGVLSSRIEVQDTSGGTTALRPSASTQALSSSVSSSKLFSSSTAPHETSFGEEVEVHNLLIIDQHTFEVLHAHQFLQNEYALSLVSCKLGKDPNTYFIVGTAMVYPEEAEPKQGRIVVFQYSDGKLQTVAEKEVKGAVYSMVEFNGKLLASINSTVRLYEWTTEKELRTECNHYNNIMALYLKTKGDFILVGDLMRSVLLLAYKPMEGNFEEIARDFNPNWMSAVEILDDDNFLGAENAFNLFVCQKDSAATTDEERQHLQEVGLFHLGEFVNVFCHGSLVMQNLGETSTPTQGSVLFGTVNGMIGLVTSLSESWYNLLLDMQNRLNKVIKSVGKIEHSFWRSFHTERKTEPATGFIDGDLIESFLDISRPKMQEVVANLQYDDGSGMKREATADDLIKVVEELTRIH

pEC50	Compound
< 5.00	N#Cc1ccc(C2CN([C@H]3CCCC[C@@H]3Oc3ccc4c(c3)CN(C35CC(C3)C(=O)NC5=O)C4=O)C2)c(F)c1 (racemic) [Compound 91, Rac-4-(1-((trans)-2-((2-(2,4-dioxo-3-azabicyclo[3.1.1]heptan-1-yl)-1-oxoisoindolin-5-yl)oxy)cyclohexyl)azetidin-3-yl)-3-fluorobenzonitrile]
< 5.00	N#Cc1ccc(C2CN([C@H]3CCCC[C@@H]3Oc3ccc4c(c3)CN(C35CC(C3)C(=O)NC5=O)C4=O)C2)cc1 (racemic) [Compound 93, Rac-4-(1-((trans)-2-((2-(2,4-dioxo-3-azabicyclo[3.1.1]heptan-1-yl)-1-oxoisoindolin-5-yl)oxy)cyclohexyl)azetidin-3-yl)benzonitrile]
< 5.00	N#Cc1cccc(C2CN([C@H]3CCCC[C@H]3Oc3ccc4c(c3)CN(C35CC(C3)C(=O)NC5=O)C4=O)C2)c1 (racemic) [Compound 77, Rac-3-(1-((cis)-2-((2-(2,4-dioxo-3-azabicyclo[3.1.1]heptan-1-yl)-1-oxoisoindolin-5-yl)oxy)cyclohexyl)azetidin-3-yl)benzonitrile]
< 5.00	N#Cc1cc(F)ccc1C1CN([C@@H]2CCC[C@@H]2Oc2ccc3c(c2)CN(C24CC(C2)C(=O)NC4=O)C3=O)C1 (racemic) [Compound 70, Rac-2-(1-((cis)-2-((2-(2,4-dioxo-3-azabicyclo[3.1.1]heptan-1-yl)-1-oxoisoindolin-5-yl)oxy)cyclopentyl)azetidin-3-yl)-5-fluorobenzonitrile]
6.04	O=C1NC(=O)C2(N3Cc4cc(O[C@H]5CCC[C@@H]5N5CC(c6ccccc6Cl)C5)ccc4C3=O)CC1C2 [Compound 82, 1-(5-(((1S,2S)-2-(3-(2-chlorophenyl)azetidin-1-yl)cyclopentyl)oxy)-1-oxoisoindolin-2-yl)-3-azabicyclo[3.1.1]heptane-2,4-dione]
< 5.00	O=C1NC(=O)C2(N3Cc4cc(O[C@H]5CCCC[C@@H]5N5CC(c6ccc(F)cc6Cl)C5)ccc4C3=O)CC1C2 [Compound 85, 1-(5-(((1S,2S)-2-(3-(2-chloro-4-fluorophenyl)azetidin-1-yl)cyclohexyl)oxy)-1-oxoisoindolin-2-yl)-3-azabicyclo[3.1.1]heptane-2,4-dione]
< 5.00	N#Cc1ccccc1C1CN([C@H]2CCCC[C@@H]2Oc2ccc3c(c2)CN(C24CC(C2)C(=O)NC4=O)C3=O)C1 (racemic) [Compound 95, Rac-2-(1-((trans)-2-((2-(2,4-dioxo-3-azabicyclo[3.1.1]heptan-1-yl)-1-oxoisoindolin-5-yl)oxy)cyclohexyl)azetidin-3-yl)benzonitrile]
< 5.00	N#Cc1ccc(C2CN([C@H]3CCCC[C@H]3Oc3ccc4c(c3)CN(C35CC(C3)C(=O)NC5=O)C4=O)C2)cc1 (racemic) [Compound 92, Rac-4-(1-((cis)-2-((2-(2,4-dioxo-3-azabicyclo[3.1.1]heptan-1-yl)-1-oxoisoindolin-5-yl)oxy)cyclohexyl)azetidin-3-yl)benzonitrile]
< 5.00	N#Cc1ccc(C2CN([C@H]3CCCC[C@H]3Oc3ccc4c(c3)CN(C35CC(C3)C(=O)NC5=O)C4=O)C2)c(F)c1 (racemic) [Compound 90, Rac-4-(1-((cis)-2-((2-(2,4-dioxo-3-azabicyclo[3.1.1]heptan-1-yl)-1-oxoisoindolin-5-yl)oxy)cyclohexyl)azetidin-3-yl)-3-fluorobenzonitrile]
< 5.00	O=C1NC(=O)C2(N3Cc4cc(O[C@H]5CCC[C@@H]5N5CC(c6ccccc6)C5)ccc4C3=O)CC1C2 [Compound 105, 1-(1-oxo-5-(((1S,2S)-2-(3-phenylazetidin-1-yl)cyclopentyl)oxy)isoindolin-2-yl)-3-azabicyclo[3.1.1]heptane-2,4-dione]
< 5.00	N#Cc1cccc(C2CN([C@H]3CCCC[C@@H]3Oc3ccc4c(c3)CN(C35CC(C3)C(=O)NC5=O)C4=O)C2)c1 (racemic) [Compound 78, Rac-3-(1-((trans)-2-((2-(2,4-dioxo-3-azabicyclo[3.1.1]heptan-1-yl)-1-oxoisoindolin-5-yl)oxy)cyclohexyl)azetidin-3-yl)benzonitrile]
7.62	N#Cc1cc(F)ccc1C1CN([C@H]2CCCC[C@H]2Oc2ccc3c(c2)CN(C2CCC(=O)NC2=O)C3=O)C1 (mixture of isomers) [Compound 102, Rac-2-(1-((cis)-2-((2-(2,6-dioxopiperidin-3-yl)-1-oxoisoindolin-5-yl)oxy)cyclohexyl)azetidin-3-yl)-5-fluorobenzonitrile]
< 5.00	N#Cc1ccccc1C1CN([C@H]2CCCC[C@H]2Oc2ccc3c(c2)CN(C24CC(C2)C(=O)NC4=O)C3=O)C1 (racemic) [Compound 94, Rac-2-(1-((cis)-2-((2-(2,4-dioxo-3-azabicyclo[3.1.1]heptan-1-yl)-1-oxoisoindolin-5-yl)oxy)cyclohexyl)azetidin-3-yl)benzonitrile]
< 5.00	O=C1NC(=O)C2(N3Cc4cc(O[C@H]5CCCC[C@@H]5N5CCC(c6ccccc6)C5)ccc4C3=O)CC1C2 (stereo partly drawn) [Compound 106, 1-(1-oxo-5-(((1S,2S)-2-(3-phenylpyrrolidin-1-yl)cyclohexyl)oxy)isoindolin-2-yl)-3-azabicyclo[3.1.1]heptane-2,4-dione]
